Measured values: patent publication US9085555B2, “Complement pathway modulators and uses thereof” (priority 2011, dated 2015)

Target: Factor D (Homo sapiens (Human), UniProt P00746)
Assay: biochemical
Type: biochemical
Conditions: read-out: IC50

Chain of Factor D (P00746 26-253): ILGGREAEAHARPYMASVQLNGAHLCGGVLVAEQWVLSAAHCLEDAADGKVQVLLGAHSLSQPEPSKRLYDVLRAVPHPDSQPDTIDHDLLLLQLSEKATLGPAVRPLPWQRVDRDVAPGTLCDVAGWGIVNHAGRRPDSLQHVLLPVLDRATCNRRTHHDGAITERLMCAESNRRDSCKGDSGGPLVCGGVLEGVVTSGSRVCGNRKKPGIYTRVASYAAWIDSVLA

Compound	IC50
CCc1cc2c(C(N)=O)nn(CC(=O)N3[C@@H]4C[C@@H]4C[C@H]3C(=O)Nc3cccc(OC(F)(F)F)c3F)c2cn1 [Example 712, 5-Ethyl-1-{2-[(1R,3S,5R)-3-(2-fluoro-3-trifluoromethoxy-phenylcarbamoyl)-2-aza-bicyclo[3.1.0]hex-2-yl]-2-oxo-ethyl}-1H-pyrazolo[3,4-c]pyridine-3-carboxylic acid amide]	38 nM
NC(=O)n1cc(NC(=O)N2C[C@H](F)C[C@H]2C(=O)Nc2cc(Br)cc(C(=O)O)c2)c2ccccc21 [Example 159, 3-bromo-5-{[(2S,4R)-1-(1-carbamoyl-1H-indol-3-ylcarbamoyl)-4-fluoro-pyrrolidine-2-carbonyl]-amino}-benzoic acid]	55 nM
CC1(C)SC[C@@H](C(=O)Nc2cccc(OC(F)(F)F)c2)N1C(=O)Nc1cn(C(N)=O)c2ccccc12 [Example 151, (R)-2,2-Dimethyl-thiazolidine-3,4-dicarboxylic acid 3-[(1-carbamoyl-1H-indol-3-yl)-amide] 4-[(3-trifluoromethoxy-phenyl)-amide]]	9320 nM
CC(C)c1cccc(NC(=O)[C@@H]2C[C@H](N)CN2C(=O)Nc2cn(C(N)=O)c3ccccc23)c1 [Example 102, (2S,4S)-4-Amino-pyrrolidine-1,2-dicarboxylic acid 1-[(1-carbamoyl-1H-indol-3-yl)-amide]2-[(3-isopropyl-phenyl)-amide]]	567 nM
NC(=O)n1cc(NC(=O)N2C[C@@H](N)C[C@H]2C(=O)NCc2ccc(-c3ccc(Cl)s3)s2)c2ccccc21 [Example 42, (2S,4S)-4-Amino-pyrrolidine-1,2-dicarboxylic acid 1-[(1-carbamoyl-1H-indol-3-yl)-amide] 2-[(5′-chloro-[2,2′]bithiophenyl-5-ylmethyl)-amide]]	2850 nM
CCOC(=O)Cc1ccc2c(NC(=O)N3[C@@H]4C[C@@H]4C[C@H]3C(=O)NCc3cccc(Cl)c3F)cn(C(N)=O)c2c1 [Example 315, (1-carbamoyl-3-{[(1R,3S,5R)-3-(3-chloro-2-fluoro-benzylcarbamoyl)-2-aza-bicyclo[3.1.0]hexane-2-carbonyl]-amino}-1H-indol-6-yl)-acetic acid ethyl ester]	13 nM
NC(=O)n1cc(NC(=O)N2NCC[C@@H]2C(=O)NCc2cccc(Cl)c2F)c2ccccc21 [Example 433]	1790 nM
Cc1cc2c(C(N)=O)nn(CC(=O)N3C[C@H](F)C[C@H]3C(=O)N[C@H](C)c3cccc(Cl)c3F)c2cn1 [Example 691, 1-(2-{(2S,4R)-2-[(R)-1-(3-Chloro-2-fluoro-phenyl)-ethylcarbamoyl]-4-fluoro-pyrrolidin-1-yl}-2-oxo-ethyl)-5-methyl-1H-pyrazolo[3,4-c] pyridine-3-carboxylic acid amide]	68 nM
NC(=O)n1cc(NC(=O)N2C[C@H]3C[C@H]3[C@H]2C(=O)N[C@H](CO)c2cccc(Cl)c2F)c2ccccc21 [Example 212, (1R,2S,5S)-3-Azabicyclo[3.1.0]hexane-2,3-dicarboxylic acid 3-[(1-carbamoyl-1H-indol-3-yl)-amide] 2-{[(S)-1-(3-chloro-2-fluoro-phenyl)-2-hydroxy-ethyl]-amide}]	10 nM
CNC[C@@]1(F)C[C@@H](C(=O)NCc2cccc(Cl)c2F)N(C(=O)Nc2cn(C(N)=O)c3ccccc23)C1 [Example 424, 2S,4S)-4-Fluoro-4-methylaminomethyl-pyrrolidine-1,2-dicarboxylic acid 1-[(1-carbamoyl-1H-indol-3-yl)-amide]2-(3-chloro-2-fluoro-benzylamide]	68 nM
NC(=O)n1cc(NC(=O)N2C3CC3C[C@H]2C(=O)NCc2cccc(Cl)c2F)c2cc(F)ccc21 (stereo partly drawn) [Example 294, (1R,3S,5R)-2-Aza-bicyclo[3.1.0]hexane-2,3-dicarboxylic acid 2-[(1-carbamoyl-5-fluoro-1H-indol-3-yl)-amide] 3-(3-chloro-2-fluoro-benzylamide)]	5 nM
C[C@H]1C[C@@H](C(=O)NCc2cccc(Cl)c2F)N(C(=O)Nc2cn(C(N)=O)c3ccccc23)C1 [Example 182, (2S,4S)-4-Methyl-pyrrolidine-1,2-dicarboxylic acid 1-[(1-carbamoyl-1H-indol-3-yl)-amide] 2-(3-chloro-2-fluoro-benzylamide)]	63 nM
COc1ccc2c(c1)c(C(N)=O)cn2CC(=O)N1C[C@H](F)C[C@H]1C(=O)NCc1cccc(Cl)c1F [Example 497, 1-{2-[(2S,4R)-2-(3-Chloro-2-fluoro-benzylcarbamoyl)-4-fluoro-pyrrolidin-1-yl]-2-oxo-ethyl}-5-methoxy-1H-indole-3-carboxylic acid amide]	128 nM
CC(=O)c1cn(CC(=O)N2[C@@H]3C[C@@H]3C[C@H]2C(=O)NCc2cccc(Cl)c2F)c2cc(OCc3nn[nH]n3)ccc12 [Example 587, (1R,3S,5R)-2-{2-[3-Acetyl-6-(1H-tetrazol-5-ylmethoxy)-indol-1-yl]-acetyl}-2-aza-bicyclo[3.1.0]hexane-3-carboxylic acid 3-chloro-2-fluoro-benzylamide]	79 nM
COc1ccc2c(c1)c(NC(=O)N1C[C@H](F)C[C@H]1C(=O)Nc1cccc(OC(F)(F)F)c1F)cn2C(N)=O [Example 298, (2S,4R)-4-Fluoro-pyrrolidine-1,2-dicarboxylic acid 1-[(1-carbamoyl-5-methoxy-1H-indol-3-yl)-amide] 2-[(2-fluoro-3-trifluoromethoxy-phenyl)-amide]]	7 nM
CC(=O)c1cn(CC(=O)N2[C@@H]3C[C@@H]3C[C@H]2C(=O)N[C@H](CN(C)C)c2cccc(Cl)c2F)c2ccccc12 [Example 522, (1R,3S,5R)-2-[2-(3-Acetyl-indol-1-yl)-acetyl]-2-aza-bicyclo[3.1.0]hexane-3-carboxylic acid [(S)-1-(3-chloro-2-fluoro-phenyl)-2-dimethylamino-ethyl]-amide]	415 nM
CCOC(=O)[C@H](CC1CCCCC1)NC(=O)[C@@H]1C[C@H]2C[C@H]2N1C(=O)Cn1nc(C(C)=O)c2cccnc21 [Example 765]	211 nM
NC(=O)n1cc(NC(=O)N2C[C@@H](N)C[C@H]2C(=O)NCCc2ccccc2Cl)c2ccccc21 [Example 87, (2S,4S)-4-Amino-pyrrolidine-1,2-dicarboxylic acid 1-[(1-carbamoyl-1Hindol-3-yl)-amide] 2-{[2-(2-chloro-phenyl)-ethyl]-amide}]	4650 nM
NC(=O)n1cc(NC(=O)N2C[C@@H](N)C[C@H]2C(=O)NCc2cccc(-n3cccc3)c2)c2ccccc21 [Example 40, (2S,4S)-4-Amino-pyrrolidine-1,2-dicarboxylic acid 1-[(1-carbamoyl-1H-indol-3-yl)-amide] 2-(3-pyrrol-1-yl-benzylamide)]	11200 nM
NC(=O)n1cc(NC(=O)N2CC[C@H](N)[C@H]2C(=O)NCc2cccc(Cl)c2)c2ccccc21 [Example 421, 2S,3S)-3-Amino-pyrrolidine-1,2-dicarboxylic acid 1-[(1-carbamoyl-1H-indol-3-yl)-amide]2-(3-chloro-benzylamide]	9300 nM
COC[C@@H](NC(=O)[C@@H]1C[C@H]2C[C@H]2N1C(=O)Cn1cc(C(C)=O)c2ccccc21)c1cccc(Cl)c1F [Example 568, (1R,3S,5R)-2-[2-(3-Acetyl-indol-1-yl)-acetyl]-2-aza-bicyclo[3.1.0]hexane-3-carboxylic acid [(S)-1-(3-chloro-2-fluoro-phenyl)-2-methoxy-ethyl]-amide]	121 nM
CC(=O)c1cn(CC(=O)N2[C@@H]3C[C@@H]3C[C@H]2C(=O)NCc2cccc(Cl)c2F)c2ccc(O)cc12 [Example 581, (1R,3S,5R)-2-[2-(3-Acetyl-5-hydroxy-indol-1-yl)-acetyl]-2-aza-bicyclo[3.1.0]hexane-3-carboxylic acid 3-chloro-2-fluoro-benzylamide]	60 nM
CC(C)(C)OC(=O)COc1ccc2c(c1)c(NC(=O)N1[C@@H]3C[C@@H]3C[C@H]1C(=O)NCc1ccccc1F)cn2C(N)=O [Example 390, (1-Carbamoyl-3-{[(1R,3S,5R)-3-(2-fluoro-benzylcarbamoyl)-2-aza-bicyclo[3.1.0]hexane-2-carbonyl]-amino}-1H-indol-5-yloxy)-acetic acid tert-butyl ester]	38 nM
CC(=O)c1cn(CC(=O)N2C[C@H]3C[C@H]3[C@H]2C(=O)NCc2cccc(Cl)c2F)c2ccncc12 [Example 537, (1R,2S,5S)-3-[2-(3-Acetyl-pyrrolo[3,2-c]pyridin-1-yl)-acetyl]-3-aza-bicyclo[3.1.0] hexane-2-carboxylic acid 3-chloro-2-fluoro-benzylamide]	609 nM
NC(=O)c1nn(CC(=O)N2[C@H](C(=O)Nc3cccc(OC(F)(F)F)c3F)C[C@@]3(CO)C[C@@H]23)c2ccccc12 [Example 758, 1-{2-[(1R,3S,5S)-3-(2-Fluoro-3-trifluoromethoxy-phenylcarbamoyl)-5-hydroxymethyl-2-aza-bicyclo[3.1.0]hex-2-yl]-2-oxo-ethyl}-1H-indazole-3-carboxylic acid amide]	64 nM
NC(=O)n1cc(NC(=O)N2C[C@H](F)C[C@H]2C(=O)Nc2cncc(Cl)c2)c2ccccc21 [Example 193, (2S,4R)-4-Fluoro-pyrrolidine-1,2-dicarboxylic acid 1-[(1-carbamoyl-1H-indol-3-yl)-amide] 2-[(5-chloro-pyridin-3-yl)-amide]]	160 nM
Cc1ccnc(CNC(=O)[C@@H]2C[C@H](N)CN2C(=O)Nc2cn(C(N)=O)c3ccccc23)c1 [Example 67, (2S,4S)-4-Amino-pyrrolidine-1,2-dicarboxylic acid 1-[(1-carbamoyl-1H-indol-3-yl)-amide] 2-[(4-methyl-pyridin-2-ylmethyl)-amide]]	22200 nM
NC(=O)n1cc(NC(=O)N2C3CC3C[C@H]2C(=O)NCc2cncc(Cl)c2)c2ccccc21 (stereo partly drawn) [Example 228, (1R,3S,5R)-2-Aza-bicyclo[3.1.0]hexane-2,3-dicarboxylic acid 2-[(1-carbamoyl-1H-indol-3-yl)-amide] 3-[(5-chloro-pyridin-3-ylmethyl)-amide]]	100 nM
NC(=O)n1cc(NC(=O)N2CCC[C@H]2C(=O)NCc2cccc(Cl)c2F)c2ccccc21 [Example 170, (S)-Pyrrolidine-1,2-dicarboxylic acid 1-[(1-carbamoyl-1H-indol-3-yl)-amide] 2-(3-chloro-2-fluoro-benzylamide)]	30 nM
